From patent US5011833A, “Novel derivatives of 6,11-dihydro-dibenzo(C,F)(1,2,5)-thiadiazepine 5,5-dioxide, salts thereof and appropriate processes for the preparation thereof” (A. Menarini Industrie Farmaceutiche Riunite, priority 1988, dated 1991) come the findings set out here.

Where two headings read alike, the source gives them in different places. Bounds are passed on as bounds.

A short description of data set [1]: acute oral toxicity (LD-50). Conditions: mouse, in vivo.
The subject of data set [2] is hypothermia induced by apomorphine. The data set is described as follows: inhibition of hypothermia induced by apomorphine (apomorphine test). The following applies: Mus musculus, po, 1 h, read-out: Hypothermia inhibition from Apo16: ED-50.
A further data set concerns convulsions. Conditions: in vivo.
A further data set relates to motor activity. Conditions: in vivo.
The test system of a further data set is blood pressure. Conditions: in vivo.
For another data set, the system named is anticholinergic effect. The following applies: in vivo.
Another data set has as its system cardio-toxic. Conditions: in vivo.
Another data set relates to duodenal ulcers. The data set is described as follows: effect on duodenal ulcers. The following applies: in vivo.
Where [3] appears, read: Swiss male mice, after 14 days, read-out: LD-50.

In the case of `CCN(CC)CC(=O)N1c2ccccc2N(C)S(=O)(=O)c2ccccc21` [Compound 3, 6-Methyl-6,11-dihydro-11-(N,N-diethylamino-acetyl)dibenzo[c,f][1,2,5]thiadiazepine 5,5-dioxide], the LD50 at 336 h in data set [1] (setting [3]) was more than 2000 mg/kg. Besides, in data set [2], the ED50 is 15 to 25 mg/kg.

Consider `CN(C)CCCN1c2ccccc2CCc2ccccc21` [imipramine, reference compound], for which the ED50 in data set [2] was 4 to 15 mg/kg.

Regarding `CN(C)CC(=O)N1c2ccccc2N(C)S(=O)(=O)c2ccccc21` [Compound 1, 6-Methyl-6,11-dihydro-11-(N,N-dimethylaminoacetyl)dibenzo[c,f][1,2,5]thiadiazepine 5,5-dioxide], the LD50 at 336 h in data set [1] (setting [3]) is 1500 to 2000 mg/kg; in data set [1] (mice, read-out: oral LD-50), 1920 mg/kg. For the same molecule, the convulsions entry in the data set on convulsions is on record as “does not induce convulsions”. In addition, in the data set on motor activity, the motor activity result is reported as “does not alter the motor activity”. Moreover, the blood pressure entry in the data set with blood pressure is reported as “does not alter the blood pressure”. In addition, the anticholinergic effect entry in the data set with anticholinergic effect is on record as “induces very weak anticholinergic effects”. Besides, the cardio-toxicity entry in the data set on cardio-toxic was “is not cardio-toxic”. In addition, the duodenal ulcers entry in the data set with duodenal ulcers is recorded as “reduces duodenal ulcers”. In addition, the ED50 in data set [2] lay within 4 to 15 mg/kg.

On to `CNCC(=O)N1c2ccccc2N(C)S(=O)(=O)c2ccccc21` [Compound 2], for which the LD50 at 336 h in data set [1] (setting [3]) was 750 to 1000 mg/kg. The ED50 in data set [2] is 4 to 15 mg/kg.

Consider `Cc1ccc2c(c1)N(C(=O)CN(C)C)c1ccccc1S(=O)(=O)N2C` [Compound 6, 6,9-dimethyl-6,11-dihydro-11-(N,N-dimethylaminoacetyl)-dibenzo[c,f][1,2,5]thiadiazepine 5,5-dioxide], for which the LD50 at 336 h in data set [1] (setting [3]) lay within 1500 to 2000 mg/kg. The ED50 in data set [2] fell in the range of 4 to 15 mg/kg.

For the molecule `CN(C)CCC(=O)N1c2ccccc2N(C)S(=O)(=O)c2ccccc21.Cl` [Compound 4, 6-Methyl-6,11-dihydro-11-[3-(N,N-dimethylamino)propionyl]dibenzo[c,f][1,2,5]thiadiazepine 5,5-dioxide hydrochloride], in data set [1] (setting [3]), the LD50 at 336 h lay in the range of 500 to 700 mg/kg. Besides, the ED50 in data set [2] is 15 to 25 mg/kg.

In the case of `CN(C)CCCN1c2ccccc2N(C)S(=O)(=O)c2ccccc21` [reference compound], in data set [1] (mice, read-out: oral LD-50), the LD50 at 336 h worked out at 655 mg/kg. Moreover, the convulsions entry in the data set with convulsions is listed as “induces convulsions”. Also, the motor activity entry in the data set on motor activity was “increases the motor activity”. Moreover, the blood pressure result with blood pressure was “increases the blood pressure”. Besides, the anticholinergic effect result with anticholinergic effect was “possesses anticholinergic effect”.

As for `CN(C)CC(=O)N1c2ccc(Cl)cc2N(C)S(=O)(=O)c2ccccc21` [Compound 5, 8-chloro-6-methyl-6,11-dihydro-11-(N,N-dimethylamino-acethyl)-dibenzo[c,f][1,2,5]thiadiazepine 5,5-dioxide], in data set [1] (setting [3]), the LD50 at 336 h fell in the range of 1000 to 1500 mg/kg. For the same molecule, the ED50 in data set [2] lay in the range of 15 to 25 mg/kg.
